From patent publication US20260224588A1, “BENZODIAZEPINONE-DERIVED INHIBITORS OF EGFR AND HER2” (The Research Foundation for the State University of New York, priority 2023, published 2026)

Assays:
[1] = molecular target: T1, AAK1 (Homo sapiens, UniProt Q2M2I8); experiment: KINOMEscan; type: binding; details: 1 μM of compound 4; read-out: POC
T1 construct: purchased Eurofins DiscoverX Corporation

[2] = molecular target: CDK9 (Homo sapiens, UniProt P50750); experiment: KINOMEscan; type: binding; details: 1 μM of compound 4; read-out: POC
Chain of CDK9 (P50750 whole entry): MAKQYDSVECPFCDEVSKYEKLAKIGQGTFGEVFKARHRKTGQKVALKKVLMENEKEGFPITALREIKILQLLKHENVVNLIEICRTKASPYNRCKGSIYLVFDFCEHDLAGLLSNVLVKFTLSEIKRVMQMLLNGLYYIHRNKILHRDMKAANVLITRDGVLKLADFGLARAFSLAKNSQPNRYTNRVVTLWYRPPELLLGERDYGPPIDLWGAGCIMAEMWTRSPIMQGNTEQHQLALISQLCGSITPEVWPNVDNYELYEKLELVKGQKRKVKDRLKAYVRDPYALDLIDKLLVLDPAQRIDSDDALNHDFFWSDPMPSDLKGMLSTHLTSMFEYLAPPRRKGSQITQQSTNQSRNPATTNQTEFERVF

[3] = molecular target: T2, VPS34 (Homo sapiens, UniProt Q8NEB9); experiment: KINOMEscan; type: binding; details: 1 μM of compound 4; read-out: POC
T2 construct: purchased Eurofins DiscoverX

[4] = molecular target: JAK1(JH1domain-catalytic) (Homo sapiens, UniProt P23458); experiment: KINOMEscan; type: binding; details: 1 μM of compound 4; read-out: POC
Chain of JAK1(JH1domain-catalytic) (P23458 875-1153 limits assumed): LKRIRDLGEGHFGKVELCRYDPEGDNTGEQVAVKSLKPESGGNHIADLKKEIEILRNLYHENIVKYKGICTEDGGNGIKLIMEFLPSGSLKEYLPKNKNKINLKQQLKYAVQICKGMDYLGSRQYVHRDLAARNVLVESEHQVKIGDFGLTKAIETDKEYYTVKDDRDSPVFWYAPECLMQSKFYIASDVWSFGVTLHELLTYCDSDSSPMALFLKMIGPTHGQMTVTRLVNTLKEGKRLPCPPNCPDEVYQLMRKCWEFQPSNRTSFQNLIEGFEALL

[5] = molecular target: T3, ABL1(T315I)-nonphosphorylated (Homo sapiens, UniProt P00519, T315I); experiment: KINOMEscan; type: binding; details: 1 μM of compound 4; read-out: POC
T3 construct: purchased Eurofins DiscoverX Corporation

[6] = molecular target: CDC2L5 (Homo sapiens, UniProt Q14004); experiment: KINOMEscan; type: binding; details: 1 μM of compound 4; read-out: POC
Chain of CDC2L5 (Q14004 whole entry): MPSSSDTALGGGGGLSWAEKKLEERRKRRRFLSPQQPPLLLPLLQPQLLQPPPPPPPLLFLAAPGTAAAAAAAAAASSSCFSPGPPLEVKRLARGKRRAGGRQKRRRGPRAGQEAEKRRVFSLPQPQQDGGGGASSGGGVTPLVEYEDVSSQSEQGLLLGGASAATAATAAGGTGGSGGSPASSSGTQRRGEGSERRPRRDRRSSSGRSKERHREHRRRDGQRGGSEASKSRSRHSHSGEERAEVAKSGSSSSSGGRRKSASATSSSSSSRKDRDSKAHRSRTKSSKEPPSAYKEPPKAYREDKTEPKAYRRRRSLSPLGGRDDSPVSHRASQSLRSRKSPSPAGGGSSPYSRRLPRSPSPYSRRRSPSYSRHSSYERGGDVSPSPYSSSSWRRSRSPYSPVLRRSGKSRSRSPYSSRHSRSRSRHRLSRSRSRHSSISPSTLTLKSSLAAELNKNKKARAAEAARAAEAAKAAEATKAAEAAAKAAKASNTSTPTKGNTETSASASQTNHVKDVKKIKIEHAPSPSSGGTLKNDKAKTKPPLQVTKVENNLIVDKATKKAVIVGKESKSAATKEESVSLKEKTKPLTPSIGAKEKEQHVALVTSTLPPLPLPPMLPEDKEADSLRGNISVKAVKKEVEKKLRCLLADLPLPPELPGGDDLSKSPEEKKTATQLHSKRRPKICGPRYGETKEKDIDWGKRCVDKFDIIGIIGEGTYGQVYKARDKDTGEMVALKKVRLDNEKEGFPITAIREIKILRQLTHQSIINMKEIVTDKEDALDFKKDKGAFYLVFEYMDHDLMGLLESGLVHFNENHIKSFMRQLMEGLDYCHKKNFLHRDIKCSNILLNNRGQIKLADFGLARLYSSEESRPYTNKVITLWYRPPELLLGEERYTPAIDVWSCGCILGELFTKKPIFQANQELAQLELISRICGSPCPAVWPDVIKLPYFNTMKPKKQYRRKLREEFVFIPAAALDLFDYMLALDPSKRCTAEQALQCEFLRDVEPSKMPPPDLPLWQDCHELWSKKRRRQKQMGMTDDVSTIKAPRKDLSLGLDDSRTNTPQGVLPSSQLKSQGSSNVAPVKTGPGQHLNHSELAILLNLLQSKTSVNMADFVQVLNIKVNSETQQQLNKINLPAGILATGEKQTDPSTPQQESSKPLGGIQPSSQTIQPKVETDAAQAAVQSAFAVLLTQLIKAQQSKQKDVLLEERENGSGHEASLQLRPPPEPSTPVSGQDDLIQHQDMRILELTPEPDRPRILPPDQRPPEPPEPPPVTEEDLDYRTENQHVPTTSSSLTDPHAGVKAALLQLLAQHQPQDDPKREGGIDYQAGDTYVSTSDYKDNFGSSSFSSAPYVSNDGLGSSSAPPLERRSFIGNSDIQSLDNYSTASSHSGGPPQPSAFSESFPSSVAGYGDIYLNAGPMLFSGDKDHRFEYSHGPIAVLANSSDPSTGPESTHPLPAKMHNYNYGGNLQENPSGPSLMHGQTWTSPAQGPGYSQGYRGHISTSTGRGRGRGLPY

[7] = molecular target: T4, PFTAIRE2 (Homo sapiens, UniProt Q96Q40); experiment: KINOMEscan; type: binding; details: 1 μM of compound 4; read-out: POC
T4 construct: purchased Eurofins DiscoverX Corporation (KINOMEscan)
T4 sequence (Q96Q40 whole entry): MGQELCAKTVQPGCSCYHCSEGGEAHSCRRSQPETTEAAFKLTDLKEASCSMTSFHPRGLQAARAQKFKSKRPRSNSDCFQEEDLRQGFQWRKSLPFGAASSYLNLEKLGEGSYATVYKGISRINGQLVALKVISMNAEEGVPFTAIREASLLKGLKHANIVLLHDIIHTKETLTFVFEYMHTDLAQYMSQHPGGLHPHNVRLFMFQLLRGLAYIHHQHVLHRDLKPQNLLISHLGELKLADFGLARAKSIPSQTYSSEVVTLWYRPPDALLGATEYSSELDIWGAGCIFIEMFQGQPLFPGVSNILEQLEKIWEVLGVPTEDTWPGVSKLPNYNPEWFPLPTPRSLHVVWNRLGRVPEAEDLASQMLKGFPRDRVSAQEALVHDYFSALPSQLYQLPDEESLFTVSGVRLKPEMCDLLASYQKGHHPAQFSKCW

[8] = molecular target: CASK (Homo sapiens, UniProt O14936); experiment: KINOMEscan; type: binding; details: 1 μM of compound 4; read-out: POC
[9] = molecular target: ADCK3 (Homo sapiens, UniProt Q8NI60); experiment: KINOMEscan; type: binding; details: 1 μM of compound 4; read-out: POC
Chain of ADCK3 (Q8NI60 163-647): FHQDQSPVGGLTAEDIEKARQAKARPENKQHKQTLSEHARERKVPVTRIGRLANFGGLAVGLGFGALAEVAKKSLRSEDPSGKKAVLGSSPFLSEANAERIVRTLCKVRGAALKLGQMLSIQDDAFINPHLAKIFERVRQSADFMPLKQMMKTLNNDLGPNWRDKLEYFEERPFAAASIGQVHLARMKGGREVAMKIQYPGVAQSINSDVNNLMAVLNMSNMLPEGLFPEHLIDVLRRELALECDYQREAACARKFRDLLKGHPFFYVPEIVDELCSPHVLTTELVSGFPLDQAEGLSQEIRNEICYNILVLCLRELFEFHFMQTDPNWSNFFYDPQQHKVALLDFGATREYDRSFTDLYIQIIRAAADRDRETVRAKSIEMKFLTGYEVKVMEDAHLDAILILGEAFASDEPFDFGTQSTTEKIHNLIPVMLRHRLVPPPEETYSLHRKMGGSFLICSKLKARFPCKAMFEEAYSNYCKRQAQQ

[10] = molecular target: T5, FGFR3 (Homo sapiens, UniProt P22607); experiment: KINOMEscan; type: binding; details: 1 μM of compound 4; read-out: POC
T5 construct: purchased Eurofins DiscoverX Corporation

[11] = molecular target: CHEK2 (Homo sapiens, UniProt O96017); experiment: KINOMEscan; type: binding; details: 1 μM of compound 4; read-out: POC
[12] = molecular target: MAP4K5 (Homo sapiens, UniProt Q9Y4K4); experiment: KINOMEscan; type: binding; details: 1 μM of compound 4; read-out: POC
[13] = molecular target: PRKG2 (Homo sapiens, UniProt Q13237); experiment: KINOMEscan; type: binding; details: 1 μM of compound 4; read-out: POC
[14] = molecular target: PIK3CD (Homo sapiens, UniProt O00329); experiment: KINOMEscan; type: binding; details: 1 μM of compound 4; read-out: POC
[15] = molecular target: ASK1 (Homo sapiens, UniProt Q99683); experiment: KINOMEscan; type: binding; details: 1 μM of compound 4; read-out: POC
[16] = molecular target: BMX (Homo sapiens, UniProt P51813); experiment: KINOMEscan; type: binding; details: 1 μM of compound 4; read-out: POC
[17] = molecular target: T6, RIPK5 (Homo sapiens, UniProt Q6XUX3); experiment: KINOMEscan; type: binding; details: 1 μM of compound 4; read-out: POC
T6 construct: purchased Eurofins DiscoverX Corporation (KINOMEscan screening service)

[18] = molecular target: T7, EGFR(T790M) (Homo sapiens, UniProt P00533, T790M); experiment: KINOMEscan; type: binding; details: 1 μM of compound 4; read-out: POC
T7 construct: purchased Eurofins DiscoverX (KINOMEscan service)

[19] = molecular target: NEK11 (Homo sapiens, UniProt Q8NG66); experiment: KINOMEscan; type: binding; details: 1 μM of compound 4; read-out: POC
Chain of NEK11 (Q8NG66 whole entry): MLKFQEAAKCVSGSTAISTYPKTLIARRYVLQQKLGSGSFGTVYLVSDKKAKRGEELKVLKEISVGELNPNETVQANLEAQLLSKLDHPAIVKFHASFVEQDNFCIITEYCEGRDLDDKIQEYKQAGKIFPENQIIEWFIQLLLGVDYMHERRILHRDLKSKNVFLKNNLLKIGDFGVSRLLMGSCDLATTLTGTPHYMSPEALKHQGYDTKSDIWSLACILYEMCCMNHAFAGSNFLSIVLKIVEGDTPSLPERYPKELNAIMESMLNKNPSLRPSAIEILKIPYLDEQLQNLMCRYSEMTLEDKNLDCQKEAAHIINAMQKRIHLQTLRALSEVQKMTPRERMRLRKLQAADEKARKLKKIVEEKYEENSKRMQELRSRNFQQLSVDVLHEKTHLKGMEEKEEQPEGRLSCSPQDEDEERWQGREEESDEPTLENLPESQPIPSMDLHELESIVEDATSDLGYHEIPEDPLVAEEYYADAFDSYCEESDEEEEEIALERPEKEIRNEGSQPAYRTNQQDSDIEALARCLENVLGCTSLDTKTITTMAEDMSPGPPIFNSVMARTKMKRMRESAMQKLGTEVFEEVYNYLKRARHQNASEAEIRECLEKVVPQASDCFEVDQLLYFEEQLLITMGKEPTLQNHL

[20] = molecular target: T8, WNK3 (Homo sapiens, UniProt Q9BYP7); experiment: KINOMEscan; type: binding; details: 1 μM of compound 4; read-out: POC
T8 construct: purchased Eurofins DiscoverX

[21] = molecular target: PRKD3 (Homo sapiens, UniProt O94806); experiment: KINOMEscan; type: binding; details: 1 μM of compound 4; read-out: POC
[22] = molecular target: IRAK3 (Homo sapiens, UniProt Q9Y616); experiment: KINOMEscan; type: binding; details: 1 μM of compound 4; read-out: POC
[23] = molecular target: EGFR(L858R) (Homo sapiens, UniProt P00533, L858R); experiment: Time-dependent kinase inhibition assay (Sox-based substrate); type: biochemical; set-up: EGFR [L858R], cytoplasmic domain (669-1210), GST-tagged, Carna; purchased Carna 08-510
Chain of EGFR(L858R) (P00533 669-1210 L858R): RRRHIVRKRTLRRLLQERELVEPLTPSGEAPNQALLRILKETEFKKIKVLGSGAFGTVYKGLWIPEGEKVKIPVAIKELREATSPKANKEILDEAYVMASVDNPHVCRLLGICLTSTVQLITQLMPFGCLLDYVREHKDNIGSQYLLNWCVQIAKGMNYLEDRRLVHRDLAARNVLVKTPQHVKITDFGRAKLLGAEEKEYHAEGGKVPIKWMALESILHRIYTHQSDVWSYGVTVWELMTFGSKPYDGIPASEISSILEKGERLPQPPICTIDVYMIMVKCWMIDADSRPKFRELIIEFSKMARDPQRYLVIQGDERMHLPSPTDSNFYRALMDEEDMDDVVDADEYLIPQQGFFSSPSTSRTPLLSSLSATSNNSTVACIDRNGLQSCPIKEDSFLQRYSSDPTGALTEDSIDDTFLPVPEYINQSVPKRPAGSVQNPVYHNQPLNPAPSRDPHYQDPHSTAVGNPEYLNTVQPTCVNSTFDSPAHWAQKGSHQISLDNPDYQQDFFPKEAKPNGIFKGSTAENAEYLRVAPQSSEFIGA
Protocol: Time-dependent Kinase Inhibition Assays. Biochemical assays were performed with commercially available EGFR WT, cytoplasmic domain (669-1210), GST-tagged, Carna (Cat #/Lot #: 08-115/21CBS-0127H), EGFR [T790M/L858R] and EGFR [L858R], cytoplasmic domain (669-1210), GST-tagged, Carna (Cat #/Lot #: 08-510/12CBS-0765M). […] BSA was not included in this experiment to prevent interference with irreversible inhibitor characterization via off-target binding. All reactions were run for 240 minutes at 30° C. Time-dependent fluorescence from the Sox-based substrate was monitored in PerkinElmer ProxiPlate-384 Plus, white shallow well microplates (Cat. #6008280) Biotek Synergy Neo 2 microplate reader with excitation (360 nm) and emission (485 nm) wavelengths. 2 was dosed between 0 and 10 μM in 24-point curves with 1.5-fold dilutions. Fluorescence, determined with identical reactions but lacking purified enzyme or crude cell lysate was subtracted from the total fluorescence signal for each time point, with both determined in duplicate, to obtain corrected relative fluorescence units (RFU). Corrected RFU values then were plotted vs. time and the reaction velocity for the first ~40 min (initial reaction rates) were determined from the slope using GraphPad Prism (La Jolla, CA) with units of RFU/min.

[24] = molecular target: T9, EGFR(L747-S752del + P753S) (Homo sapiens, UniProt P00533, DEL747-752/P753S); experiment: KINOMEscan; type: binding; details: 1 μM of compound 4; read-out: POC
T9 construct: purchased Eurofins DiscoverX (KINOMEscan service)

[25] = molecular target: AURKA (Homo sapiens, UniProt O14965); experiment: KINOMEscan; type: binding; details: 1 μM of compound 4; read-out: POC
[26] = molecular target: MEK3 (Homo sapiens, UniProt P46734); experiment: KINOMEscan; type: binding; details: 1 μM of compound 4; read-out: POC
[27] = molecular target: T10, EPHA7 (Homo sapiens, UniProt Q15375); experiment: KINOMEscan; type: binding; details: 1 μM of compound 4; read-out: POC
T10 construct: purchased Eurofins DiscoverX (KINOMEscan service)

[28] = molecular target: NEK2 (Homo sapiens, UniProt P51955); experiment: KINOMEscan; type: binding; details: 1 μM of compound 4; read-out: POC
Chain of NEK2 (P51955 whole entry): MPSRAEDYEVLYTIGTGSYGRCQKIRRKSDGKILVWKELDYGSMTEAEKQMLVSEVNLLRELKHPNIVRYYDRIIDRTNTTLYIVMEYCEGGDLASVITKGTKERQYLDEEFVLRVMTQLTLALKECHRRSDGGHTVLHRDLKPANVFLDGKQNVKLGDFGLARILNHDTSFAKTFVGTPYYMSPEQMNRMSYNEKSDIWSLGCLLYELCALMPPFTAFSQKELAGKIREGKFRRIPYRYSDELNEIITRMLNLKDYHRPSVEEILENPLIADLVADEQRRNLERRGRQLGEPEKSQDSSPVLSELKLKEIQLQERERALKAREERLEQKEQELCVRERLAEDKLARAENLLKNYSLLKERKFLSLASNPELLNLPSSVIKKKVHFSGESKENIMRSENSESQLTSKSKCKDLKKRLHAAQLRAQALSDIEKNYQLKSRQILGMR

[29] = molecular target: CDKL2 (Homo sapiens, UniProt Q92772); experiment: KINOMEscan; type: binding; details: 1 μM of compound 4; read-out: POC
[30] = molecular target: T11, ABL1(Q252H)-phosphorylated (Homo sapiens, UniProt P00519, Q252H); experiment: KINOMEscan; type: binding; details: 1 μM of compound 4; read-out: POC
T11 construct: purchased Eurofins DiscoverX Corporation

SMILES: C=CC(=O)Nc1ccc(OC)c(Nc2cc(-c3[nH]c(CC)nc3-c3cccc(NC(=O)c4cccc5c4NC(=O)c4ccccc4N5)c3)ccn2)c1 [Compound 4, N-(3-(5-(2-((5-Acrylamido-2-methoxyphenyl)amino)pyridin-4-yl)-2-ethyl-1H-imidazol-4-yl)phenyl)-11-oxo-10,11-dihydro-5H-dibenzo[b,e][1,4]diazepine-9-carboxamide]
- remaining binding at 1 µM [1]: 100%
- remaining binding at 1 µM [2]: 100%
- remaining binding at 1 µM [3]: 84%
- remaining binding at 1 µM [4]: 91%
- remaining binding at 1 µM [5]: 98%
- remaining binding at 1 µM [6]: 74%
- remaining binding at 1 µM [7]: 84%
- remaining binding at 1 µM [8]: 97%
- remaining binding at 1 µM [9]: 100%
- remaining binding at 1 µM [10]: 94%
- remaining binding at 1 µM [11]: 87%
- remaining binding at 1 µM [12]: 2.5%
- remaining binding at 1 µM [13]: 62%
- remaining binding at 1 µM [14]: 71%
- remaining binding at 1 µM [15]: 100%
- remaining binding at 1 µM [16]: 66%
- remaining binding at 1 µM [17]: 79%
- remaining binding at 1 µM [18]: 12%
- remaining binding at 1 µM [19]: 100%
- remaining binding at 1 µM [20]: 78%
- remaining binding at 1 µM [21]: 67%
- remaining binding at 1 µM [22]: 39%
- kinact [23]: 0.00867 s⁻¹
- Ki ([23]; read-out: KI, LR): 610 ± 30 nM
- kinact/KI ([23]; read-out: kinact/KI, LR): 14100 ± 300 M⁻¹ s⁻¹
- remaining binding at 1 µM [24]: 16%
- remaining binding at 1 µM [25]: 90%
- remaining binding at 1 µM [26]: 100%
- remaining binding at 1 µM [27]: 100%
- remaining binding at 1 µM [28]: 98%
- remaining binding at 1 µM [29]: 100%
- remaining binding at 1 µM [30]: 90%
